Assay results reported in ChEMBL document CHEMBL1141906, “Novel cyclized Pifithrin-alpha p53 inactivators: synthesis and biological studies” (Bioorg Med Chem Lett, 2005).

Test system: not listed separately
Experiment: Half reaction time was determined
Type: ADME
Conditions: mouse

SMILES | half-life [h]
Br.Cc1ccc(C(=O)Cn2c3c(sc2=N)CCCC3)cc1 | 4
Br.COc1ccc(C(=O)C(C#N)n2c3c(sc2=N)CCCC3)cc1 (stereo unspecified) | 12
Br.N=c1sc2c(n1CC(=O)c1ccc([N+](=O)[O-])cc1)CCCC2 | 6
Br.N=c1sc2c(n1CC(=O)c1ccc([N+](=O)[O-])cc1)CC1CCCCC1C2 (stereo unspecified) | 5

Species on record: Mus musculus
Experiment: Effective concentration required to protect mouse embryo cortical neurons against a DNA-damaging agent
Type: functional
Conditions: not given

SMILES | EC50 [nM]
Br.COc1ccc(C(=O)C(C#N)n2c3c(sc2=N)CCCC3)cc1 (stereo unspecified) | ~30
O=[N+]([O-])c1ccc(-c2cn3c4c(sc3n2)CCCC4)cc1 | ~30
